Assay [1] has as its target T1, DHPS (Homo sapiens, UniProt P49366).
T1 construct: host or cells: E. coli BL21 (DE3)
T1 sequence (P49366 1-369): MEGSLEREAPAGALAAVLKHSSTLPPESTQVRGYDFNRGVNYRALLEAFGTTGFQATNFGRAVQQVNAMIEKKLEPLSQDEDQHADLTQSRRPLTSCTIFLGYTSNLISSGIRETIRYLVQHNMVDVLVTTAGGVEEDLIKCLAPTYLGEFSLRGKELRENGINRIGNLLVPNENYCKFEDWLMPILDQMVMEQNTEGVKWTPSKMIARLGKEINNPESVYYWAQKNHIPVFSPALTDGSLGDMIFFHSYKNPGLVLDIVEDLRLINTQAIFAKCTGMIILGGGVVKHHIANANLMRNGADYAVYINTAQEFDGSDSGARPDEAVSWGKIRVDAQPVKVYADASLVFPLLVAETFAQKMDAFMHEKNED
The assay can be described thus: Hyp'Assay: cell-free eIF5A hypusination in 96-well plates (recombinant eIF5A, DHPS, DOHH; anti-hypusine antibody Hpu24), substance present in the DHPS step. It is filed as biochemical. On the procedure:
The principle of the Hyp’Assay (Fig 2A) is to perform eIF5A hypusination reaction in 96-well plates, allow eIF5A to adsorb to the plate, incubate with an anti-hypusine antibody and a secondary antibody conjugated to HRP and reveal hypusination using TMB as a substrate.
(§1) […] Then 10 μL containing 1 μg of DOHH with 10 μM Fe^2+ (H8FeN2O8S2^. 6H2O) were added. After 1 h proteins were analyzed by Western Blot using antibodies toward DHPS, DOHH, Hypusine, and eIF5A.
(§2) The cell-free reaction described in 4.4 is performed in triplicates in a 96-wells plate (MaxiSorp, ThermoFisher) in the presence of 3 μg of eIF5A, 2 μg of DHPS, and 2 μg of DOHH by well. The reaction product, hypusinated eIF5A, is adsorbed onto the plate overnight at 4°C. The plate is washed (100 μL/well) thrice with PBS-T (PBS– 0.05% Tween20), then saturated with 1% non-fat dry milk in PBS-T for 2 h at room temperature. The plate is washed thrice with PBS-T and incubated overnight at 4°C with the anti-hypusine antibody (1:2000 in saturation buffer, 50 μL/well). The next day and after 5 washes with PBS-T, HRP-coupled anti-rabbit secondary antibody diluted 1:5000 in saturation buffer (50 μL/well) is added for 2 h at room temperature.

The next assay deals with T2, DOHH (Homo sapiens, UniProt Q9BU89).
T2 construct: pelB leader (N); host or cells: E. coli BL21 (DE3)
T2 sequence (Q9BU89 1-302): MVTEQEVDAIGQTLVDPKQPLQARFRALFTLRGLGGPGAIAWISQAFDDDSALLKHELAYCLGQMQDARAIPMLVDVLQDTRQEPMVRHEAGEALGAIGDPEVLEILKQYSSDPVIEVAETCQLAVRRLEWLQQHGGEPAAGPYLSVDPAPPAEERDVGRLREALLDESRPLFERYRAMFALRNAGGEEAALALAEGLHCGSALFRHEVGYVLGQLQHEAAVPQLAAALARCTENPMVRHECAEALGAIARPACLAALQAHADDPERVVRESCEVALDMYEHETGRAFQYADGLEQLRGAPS
The assay can be described thus: Hyp'Assay, substance added after the deoxyhypusination reaction (DOHH step). It is filed as biochemical. To be noted: 5 μM spermidine. On the procedure:
We then tested the ability of DOHH inhibitors to inhibit eIF5A hypusination using the Hyp’Assay. During the Hyp’Assay, DOHH inhibitors were added after the deoxyhypusination reaction.
To address this issue, we compared the ability of GC7 to inhibit DHPS or DOHH by adding GC7 during the first step of the Hyp’Assay; when DHPS mediates the deoxyhypusination reaction (Fig 2A), or only during the second step, when DOHH hydroxylate deoxyhypusinated eIF5A. […] When finding new hypusination inhibitors adding them during the first or the second step of the Hyp’Assay will allow us to determine if the inhibition affects DHPS or DOHH. Another way to discriminate between DHPS or DOHH inhibitors would be to use Hpu98, an antibody that recognized both hypusinated and deoxyhypusinated eIF5A, instead of Hpu24, which is specific for hypusinated eIF5A [18]. […] We performed a new Hyp’Assay by omitting DOHH in the reaction mix and using the Hpu98 antibody. First, we performed a dose response experiment with spermidine at pH: 8.0 and 9.0 (Fig 3E). […] We also tested the ability of GC7 (Fig 3F) and CPX or EDTA (Fig 3G) to inhibit DHPS.
as §1, §2

For assay [2], the system named is eIF5A hypusination in MCF7 cells. Nature of the assay: eIF5A hypusination in intact MCF7 cells, Western blot. It is filed as cell-based, human. The conditions noted are these: 24 h. On the procedure: We tested the ability of the GC7 analogs to inhibit hypusination in intact cells. MCF-7 cells (Fig 5B), a classical model of breast cancer cell line, and HT29 cells (Fig 5C), a cell model of colorectal cancer, were treated with 40 μM of GC7, 1, 2, 3, and 4 for 24h. Cells were lysed and analyzed by Western blot. As observed, none of the molecules modified eIF5A expression. […] GC7 analogs inhibited hypusination from 35 to 55%.
The human breast cancer cell line MCF7 (HTB-22 ATCC) and colorectal adenocarcinoma HT29 (HTB-38 ATCC) were cultured in DMEM (Gibco) supplemented with 10% FBS (Dutscher), 10 U/mL penicillin, and […] streptomycin. 1 mM of aminoguanidine was added to the medium to inhibit the degradation of GC7 and polyamines by amine oxidase from the serum and the production of reactive oxygen species. Cells were maintained at 37°C, 5% CO2 in a humid atmosphere.
After treatment, cells were washed with ice-cold PBS and lysed in RIPA Buffer (50 mM Tris pH 7.5, 150 mM NaCl, 0.1% SDS, 0.5% Na Deoxycholate, 5 mM NaF, 2.5 mM Na4P2O7, 1% NP4O) containing a protease inhibitor cocktail (complete Roche). 10 μg of proteins were separated by SDS PAGE and transferred to a PVDF membrane (Immobilon-P Millipore). The membranes were probed with the appropriate primary antibody that was detected by horseradish peroxidase-conjugated secondary antibody (Jackson Immunoresearch) and visualized by chemiluminescence (ECL Amersham RPN 3244) using a Fuji LAS-4000 imager. ImageJ® software was used to quantify band intensity and the ratios of proteins of interest were normalized to a loading control. Full-length Western blots are provided in the supplementary data (S19, S20 Figs).
On the technique in general: Immunoblotting shows a protein as a band on a membrane.

Assay [3] has as its system DHPS. To be noted: read-out: IC50 previously reported, cited from earlier work.

We go through 1 compound from article PMC11819603, “Development of a reliable, sensitive, and convenient assay for the discovery of new eIF5A hypusination inhibitors” (PLOS ONE, 2025).

pIC50: −log10 of the molar value. Where two headings read alike, the source gives them in different places.

In the case of `N=C(N)NCCCCCCCN` [GC7, N1-guanyl-1,7-diaminoheptane], the “concentration at which inhibition was complete” value at DHPS [1] (5 μM spermidine) worked out at 1 µM. The “concentration at which inhibition was detectable” value on DHPS [1] (5 μM spermidine) turned out to be 0.01 µM. Also, the “concentration at which the inhibitory effect began” value at DHPS [1] (100 μM spermidine) came to 0.1 µM. On DHPS [1] (100 μM spermidine), the “concentration of maximal inhibitory effect” value is 10 µM. The “Relative hypusination of eIF5A, Mean (quantification from Figure 3D)” value is given as 4,227 a.u on DHPS [1] (GC7 added during the DHPS step, 5 μM spermidine, CTRL 100,0) and 99,58 a.u at DOHH (GC7 added during the DOHH step, CTRL 100,0). In addition, the “hypusination signal, Mean (quantification from Figure 3A)” value at DHPS [1] (Spermidine 5 µM, GC7 1 (µM)) turned out to be 54.02; on DHPS [1] (Spermidine 5 µM, GC7 10 (µM)) it was 19.57; on DHPS [1] (Spermidine 5 µM, GC7 100 (µM)), 16.79; on DHPS [1] (Spermidine 5 µM, GC7 1000 (µM)), 0.5077; on DHPS [1] (Spermidine 5 µM, GC7 10000 (µM)), 0; on DHPS [1] (Spermidine 100 µM, GC7 1 (µM)), 100. The “hypusination signal, Mean (quantification from Figure 3A)” value is reported as 95.15 at DHPS [1] (Spermidine 100 µM, GC7 10 (µM)); 91.8 on DHPS [1] (Spermidine 100 µM, GC7 100 (µM)); 51.9 on DHPS [1] (Spermidine 100 µM, GC7 1000 (µM)); 0.07615 at DHPS [1] (Spermidine 100 µM, GC7 10000 (µM)). In addition, the effect on hypusination result at DHPS [1] (added during the first step (DHPS), 5 μM spermidine) is “total inhibition of hypusination”; at DOHH (added only during the hydroxylation step (DOHH)), “no inhibition was observed”. The inhibition at 1 µM on DHPS [1] (at 1 µM, 5 µM spermidine (reviewer's reading of Fig. 3)) is around 95%. In assay [2] (40 μM, Ctrl 100, 4 experiments), the “hypusinated eIF5A, Western blot quantification, Mean (Figure 5B)” value turned out to be 20.45. The inhibition at 40 µM in assay [2] (Homo sapiens) is 80%. Also, the negative logarithm of the IC50 (pIC50) is 7.77 in the assay with DHPS [3] (ref 25) and 7.30 with DHPS [3] (ref 26).

By inhibition is commonly meant the change of the read-out against control, counted positive when it falls. One may read the pIC50 as −log10 of the IC50, conventionally taken in molar units.
